{"source": "ChEMBL document CHEMBL4014354", "about": "“2'-Chloro,2'-fluoro Ribonucleotide Prodrugs with Potent Pan-genotypic Activity against Hepatitis C Virus Replication in Culture” (J Med Chem, 2017)", "key": {"[1]": {"tested_on": "Hepatitis C virus", "assay": "Antiviral activity against HCV genotype 2b infected in human HuH7 cells assessed as inhibition of viral RNA replication after 96 hrs by RT-PCR method", "format": "functional, cell-based, Hepacivirus hominis", "settings": "Huh-7, 96 h"}, "[2]": {"assay": "Prodrug conversion in human primary hepatocytes assessed as increase in nucleoside 5' triphosphate levels at 50 uM after 4 hrs by LC-MS/MS analysis relative to sofosbuvir", "format": "ADME, cell-based, Hepatocyte"}, "[3]": {"tested_on": "HepG2", "assay": "Mitochondrial toxicity in human HepG2 cells assessed as lactic acid production at 50 uM measured on day 14 by spectrophotometric method relative to control", "format": "cell-based", "settings": "hepg2, 50 µM"}, "[4]": {"tested_on": "Hepatitis C virus", "assay": "Antiviral activity against HCV genotype 2a/k infected in human HuH7 cells assessed as inhibition of viral RNA replication after 96 hrs by RT-PCR method", "format": "functional, cell-based, Hepacivirus hominis", "settings": "Huh-7, 96 h"}, "[5]": {"tested_on": "cytochrome c oxidase subunit 2 DNA (mitochondrial DNA) levels", "assay": "Mitochondrial toxicity in human HepG2 cells assessed as inhibition of cytochrome c oxidase subunit 2 DNA levels measured on day 14 by RT-PCR method", "format": "cell-based"}, "[6]": {"tested_on": "Hepatitis C virus", "assay": "Antiviral activity against HCV genotype 4 infected in human HuH7 cells assessed as inhibition of viral RNA replication after 96 hrs by RT-PCR method", "format": "functional, cell-based, Hepacivirus hominis", "settings": "genotype 4, Huh-7, 96 h"}, "[7]": {"assay": "Clearance in human intestinal microsomes", "format": "ADME, Intestine, Microsome"}, "[8]": {"target": "T1, Cytochrome P450 1A2 (Homo sapiens, UniProt P05177)", "T1 sequence (P05177 whole entry)": "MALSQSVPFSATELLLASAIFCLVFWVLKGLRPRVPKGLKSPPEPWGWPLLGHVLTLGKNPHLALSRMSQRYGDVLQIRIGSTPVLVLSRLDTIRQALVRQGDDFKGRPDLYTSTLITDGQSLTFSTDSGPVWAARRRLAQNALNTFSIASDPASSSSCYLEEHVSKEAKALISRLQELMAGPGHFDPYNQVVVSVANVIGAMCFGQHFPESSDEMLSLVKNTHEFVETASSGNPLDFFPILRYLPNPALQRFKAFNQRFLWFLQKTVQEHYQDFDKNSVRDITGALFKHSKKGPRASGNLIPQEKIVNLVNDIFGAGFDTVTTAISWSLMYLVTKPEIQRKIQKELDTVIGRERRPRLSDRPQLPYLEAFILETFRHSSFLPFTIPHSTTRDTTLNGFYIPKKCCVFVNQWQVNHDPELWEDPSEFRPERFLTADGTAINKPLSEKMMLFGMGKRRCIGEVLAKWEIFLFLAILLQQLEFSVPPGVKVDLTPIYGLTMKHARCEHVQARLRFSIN", "assay": "Inhibition of human CYP1A2 using alpha-naphthoflavone […]", "format": "ADME"}, "[9]": {"assay": "Half life in human intestinal microsomes", "format": "ADME, Intestine, Microsome"}, "[10]": {"assay": "Cytotoxicity against human CEM cells assessed as inhibition of cell proliferation after 4 days by MTT assay", "format": "cell-based, CCRF-CEM"}, "[11]": {"tested_on": "HepG2", "assay": "Cytotoxicity against human HepG2 cells assessed as inhibition of nuclear DNA levels measured on day 14 by RT-PCR method", "settings": "HepG2, 336 h"}, "[12]": {"target": "Cytochrome P450 3A4 (Homo sapiens, UniProt P08684)", "sequence (P08684 whole entry)": "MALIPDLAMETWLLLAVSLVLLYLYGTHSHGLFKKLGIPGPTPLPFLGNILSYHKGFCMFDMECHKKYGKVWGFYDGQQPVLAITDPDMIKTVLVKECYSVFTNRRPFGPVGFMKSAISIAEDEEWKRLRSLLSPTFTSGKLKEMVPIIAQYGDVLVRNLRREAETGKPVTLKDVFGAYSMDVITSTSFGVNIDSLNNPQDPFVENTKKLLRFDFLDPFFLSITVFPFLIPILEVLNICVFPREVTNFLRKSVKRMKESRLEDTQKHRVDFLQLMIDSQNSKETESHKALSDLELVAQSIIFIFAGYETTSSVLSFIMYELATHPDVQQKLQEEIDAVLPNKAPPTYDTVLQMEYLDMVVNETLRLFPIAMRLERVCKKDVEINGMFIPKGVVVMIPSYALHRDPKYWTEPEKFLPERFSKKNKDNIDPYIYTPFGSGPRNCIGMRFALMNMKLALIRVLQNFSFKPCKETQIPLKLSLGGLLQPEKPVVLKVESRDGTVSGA", "assay": "Inhibition of human CYP3A4 using ketoconazole […]", "format": "ADME"}, "[13]": {"assay": "Metabolic stability in human intestinal microsomes assessed as compound remaining after 60 mins", "format": "ADME, Intestine, Microsome", "settings": "read-out: Stability"}, "[14]": {"tested_on": "Hepatitis C virus", "assay": "Selectivity ratio of EC90 for HCV genotype 1b harboring NS5B S282T mutant to EC90 for HCV genotype 1b harboring wild type NS5B", "format": "functional, Hepacivirus hominis"}, "[15]": {"tested_on": "Hepatitis C virus", "assay": "Antiviral activity against HCV genotype 3a infected in human HuH7 cells assessed as inhibition of viral RNA replication after 96 hrs by RT-PCR method", "format": "functional, cell-based, Hepacivirus hominis", "settings": "Huh-7, 96 h"}, "[16]": {"tested_on": "cytochrome c oxidase subunit 2 DNA (mitochondrial DNA) levels", "assay": "Mitochondrial toxicity in human HepG2 cells assessed as inhibition of cytochrome c oxidase subunit 2 DNA levels at 50 uM measured on day 14 by RT-PCR method relative to nuclear beta-actin DNA levels", "format": "cell-based"}, "[17]": {"tested_on": "HepG2", "assay": "Mitochondrial toxicity in human HepG2 cells assessed as lactic acid production at 10 uM measured on day 14 by spectrophotometric method relative to control", "format": "cell-based", "settings": "hepg2, 10 µM"}, "[18]": {"tested_on": "Hepatitis C virus", "assay": "Antiviral activity against HCV genotype 1b harboring wild type NS5B infected in human HuH7 cells assessed as inhibition of viral RNA replication after 5 days by RT-PCR method", "format": "functional, cell-based, Hepacivirus hominis", "settings": "Huh-7, 120 h"}, "[19]": {"tested_on": "HepG2", "assay": "Mitochondrial toxicity in human HepG2 cells assessed as cytochrome c oxidase subunit 2 DNA levels at 50 uM measured on day 14 by RT-PCR method relative to nuclear beta-actin DNA levels", "format": "cell-based", "settings": "hepg2, 50 µM"}, "[20]": {"assay": "in vitro", "settings": "human, liver microsomes", "description": "Half life in human liver microsomes at 1 uM by LC-MS/MS analysis"}, "[21]": {"tested_on": "cytochrome c oxidase subunit 2 DNA (mitochondrial DNA) levels", "assay": "in vitro", "settings": "human, HepG2 cells"}, "[22]": {"assay": "in vitro", "settings": "human, liver microsomes", "remark": "listed apart in the source", "description": "Metabolic stability in human liver microsomes assessed as parent compound remaining at 1 uM at 60 mins by LC-MS/MS analysis"}, "[23]": {"tested_on": "Hepatitis C virus", "assay": "Antiviral activity against HCV genotype 1b infected in human HuH7 cells assessed as inhibition of viral RNA replication after 96 hrs by RT-PCR method", "format": "functional, cell-based, Hepacivirus hominis", "settings": "Huh-7, 96 h"}, "[24]": {"tested_on": "Hepatitis C virus", "assay": "Antiviral activity against HCV genotype 1a infected in human HuH7 cells assessed as inhibition of viral RNA replication after 96 hrs by RT-PCR method", "format": "functional, cell-based, Hepacivirus hominis", "settings": "subtype 1a, Huh-7, 96 h"}, "[25]": {"assay": "Prodrug conversion in human HuH7 cells assessed as increase in nucleoside 5' triphosphate levels at 50 uM after 4 hrs by LC-MS/MS analysis relative to sofosbuvir", "format": "ADME, cell-based", "settings": "huh-7, 4 h"}, "[26]": {"tested_on": "Hepatitis C virus", "assay": "Selectivity ratio of EC50 for HCV genotype 1b harboring NS5B S282T mutant to EC50 for HCV genotype 1b harboring wild type NS5B", "format": "functional, Hepacivirus hominis"}, "[27]": {"target": "Cytochrome P450 2D6 (Homo sapiens, UniProt P10635)", "sequence (P10635 whole entry)": "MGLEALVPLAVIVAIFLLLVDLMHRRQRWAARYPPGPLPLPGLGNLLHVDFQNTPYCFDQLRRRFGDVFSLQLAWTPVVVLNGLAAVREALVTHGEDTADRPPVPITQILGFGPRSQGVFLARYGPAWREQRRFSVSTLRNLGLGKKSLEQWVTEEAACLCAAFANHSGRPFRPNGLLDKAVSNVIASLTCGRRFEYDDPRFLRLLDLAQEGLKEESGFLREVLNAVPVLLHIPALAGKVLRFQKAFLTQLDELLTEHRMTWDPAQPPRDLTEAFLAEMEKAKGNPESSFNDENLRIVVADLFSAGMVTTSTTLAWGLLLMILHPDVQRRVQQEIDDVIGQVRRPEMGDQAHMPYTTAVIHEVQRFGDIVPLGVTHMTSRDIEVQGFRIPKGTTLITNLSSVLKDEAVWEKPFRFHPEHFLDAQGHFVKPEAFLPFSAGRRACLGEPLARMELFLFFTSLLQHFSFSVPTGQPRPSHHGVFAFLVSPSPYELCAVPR", "assay": "Inhibition of human CYP2D6 using quinidine […]", "format": "ADME"}, "[28]": {"assay": "Cytotoxicity against human PBMC assessed as inhibition of cell proliferation after 5 days by MTT assay", "format": "cell-based"}, "[29]": {"assay": "Cytotoxicity against human primary BMNC cells up to 50 uM measured on day 14", "format": "cell-based"}, "[30]": {"assay": "Metabolic stability in human blood assessed as compound remaining at 2 uM after 2 hrs by LC-MS/MS method", "format": "ADME, tissue-based", "settings": "read-out: Stability"}, "[31]": {"assay": "Cytotoxicity against African green monkey Vero cells assessed as inhibition of cell proliferation after 3 days by MTT assay", "format": "cell-based", "settings": "chlorocebus sabaeus"}, "[32]": {"tested_on": "Hepatitis C virus", "assay": "Antiviral activity against HCV genotype 1b harboring NS5B S282T mutant infected in human HuH7 cells assessed as inhibition of viral RNA replication after 4 days by luciferase reporter gene assay", "format": "functional, cell-based, Hepacivirus hominis", "settings": "Huh-7, 96 h"}, "[33]": {"assay": "in vitro", "settings": "human, liver microsomes", "remark": "listed apart in the source", "description": "Clearance in human liver microsomes at 1 uM by LC-MS/MS analysis"}, "[34]": {"target": "Cytochrome P450 2C9 (Homo sapiens, UniProt P11712)", "sequence (P11712 whole entry)": "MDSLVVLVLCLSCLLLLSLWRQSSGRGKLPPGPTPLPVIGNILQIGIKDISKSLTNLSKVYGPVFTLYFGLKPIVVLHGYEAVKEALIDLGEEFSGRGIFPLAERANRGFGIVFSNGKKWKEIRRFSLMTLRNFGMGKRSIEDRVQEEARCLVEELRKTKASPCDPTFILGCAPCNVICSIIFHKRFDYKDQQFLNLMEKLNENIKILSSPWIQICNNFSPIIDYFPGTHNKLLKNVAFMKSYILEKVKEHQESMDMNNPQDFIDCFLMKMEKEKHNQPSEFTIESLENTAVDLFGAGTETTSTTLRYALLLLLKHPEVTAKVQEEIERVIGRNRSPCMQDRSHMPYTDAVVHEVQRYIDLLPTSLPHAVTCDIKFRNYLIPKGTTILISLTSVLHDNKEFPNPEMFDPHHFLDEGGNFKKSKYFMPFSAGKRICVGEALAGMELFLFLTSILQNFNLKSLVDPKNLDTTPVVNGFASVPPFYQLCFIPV", "assay": "Inhibition of human CYP2C9 using sulfaphenazole […]", "format": "ADME"}, "[35]": {"assay": "Cytotoxicity against human HuH7 cells assessed as inhibition of cell proliferation after 4 days by MTS assay", "format": "cell-based, Huh-7"}, "[36]": {"tested_on": "nuclear DNA levels", "assay": "in vitro", "settings": "human, HepG2 cells"}, "[37]": {"tested_on": "HepG2", "assay": "Mitochondrial toxicity in human HepG2 cells assessed as cytochrome c oxidase subunit 2 DNA levels at 10 uM measured on day 14 by RT-PCR method relative to nuclear beta-actin DNA levels", "settings": "hepg2, 10 µM"}, "[38]": {"tested_on": "nuclear DNA levels", "assay": "Cytotoxicity against human HepG2 cells assessed as inhibition of nuclear DNA levels at 50 uM measured on day 14 by RT-PCR method relative to nuclear beta-actin DNA levels", "format": "cell-based", "settings": "read-out: INH"}}}
{"smiles": "CC(C)OC(=O)[C@H](C)NP(=O)(OC[C@H]1O[C@@H](n2ccc(=O)[nH]c2=O)[C@@](F)(Cl)[C@@H]1O)Oc1ccccc1", "note": "(mixture of isomers)", "values": [{"measurement": "IC50", "setting": "[1]", "value": 90, "unit": "nM"}, {"measurement": "fold change (FC)", "setting": "[2]", "value": 2.3}, {"measurement": "Activity", "setting": "[3]", "value": 56, "unit": "%"}, {"measurement": "IC50", "setting": "[4]", "value": 50, "unit": "nM"}, {"measurement": "IC50 at 14 days", "setting": "[5]", "value": "> 50000", "unit": "nM"}, {"measurement": "IC50", "setting": "[6]", "value": 170, "unit": "nM"}, {"measurement": "microsomal CLint", "setting": "[7]", "value": 29, "unit": "µL/min/mg"}, {"measurement": "IC50", "setting": "[8]", "value": "> 100000", "unit": "nM"}, {"measurement": "half-life", "setting": "[9]", "value": 2, "unit": "h"}, {"measurement": "CC50 at 96 h", "setting": "[10]", "value": "> 100000", "unit": "nM"}, {"measurement": "IC50", "setting": "[11]", "value": "> 50000", "unit": "nM"}, {"measurement": "IC50", "setting": "[12]", "value": 6800, "unit": "nM"}, {"measurement": "remaining at 1 h", "setting": "[13]", "value": 79, "unit": "%"}, {"measurement": "Selectivity ratio", "setting": "[14]", "value": 2.9}, {"measurement": "IC50", "setting": "[15]", "value": 150, "unit": "nM"}, {"measurement": "inhibition at 14 days, 50 µM", "setting": "[16]", "value": 27, "unit": "%"}, {"measurement": "Activity", "setting": "[17]", "value": 60, "unit": "%"}, {"measurement": "EC50", "setting": "[18]", "value": "20 to 200", "unit": "nM"}, {"measurement": "EC90", "setting": "[18]", "value": "70 to 400", "unit": "nM"}, {"measurement": "Activity", "setting": "[19]", "value": 84, "unit": "%"}, {"measurement": "half-life at 1 µM", "setting": "[20]", "value": 0.193, "unit": "h"}, {"measurement": "inhibition at 14 days, 10 µM", "setting": "[21]", "value": "< 1", "unit": "%"}, {"measurement": "remaining at 1 h, 1 µM", "setting": "[22]", "value": 4.2, "unit": "%"}, {"measurement": "IC50", "setting": "[23]", "value": 150, "unit": "nM"}, {"measurement": "IC50", "setting": "[24]", "value": 130, "unit": "nM"}, {"measurement": "fold change (FC)", "setting": "[25]", "value": 2.7}, {"measurement": "Ratio EC50", "setting": "[26]", "value": 3.5}, {"measurement": "IC50", "setting": "[27]", "value": "> 100000", "unit": "nM"}, {"measurement": "CC50 at 120 h", "setting": "[28]", "value": "> 100000", "unit": "nM"}, {"measurement": "Activity", "setting": "[29]", "value": "Non-Toxic"}, {"measurement": "remaining at 2 h, 2 µM", "setting": "[30]", "value": 103, "unit": "%"}, {"measurement": "CC50 at 72 h", "setting": "[31]", "value": "> 100000", "unit": "nM"}, {"measurement": "EC50", "setting": "[32]", "value": 70, "unit": "nM"}, {"measurement": "EC90", "setting": "[32]", "value": 200, "unit": "nM"}, {"measurement": "microsomal CLint at 1 µM", "setting": "[33]", "value": 120, "unit": "µL/min/mg"}, {"measurement": "IC50", "setting": "[34]", "value": 25000, "unit": "nM"}, {"measurement": "CC50 at 96 h", "setting": "[35]", "value": "> 10000", "unit": "nM"}, {"measurement": "cytotoxicity at 14 days, 10 µM", "setting": "[36]", "value": "< 1", "unit": "%"}, {"measurement": "Activity", "setting": "[37]", "value": 130, "unit": "%"}, {"measurement": "cytotoxicity at 14 days, 50 µM", "setting": "[38]", "value": 13, "unit": "%"}]}
